Assay [1] concerns Streptococcus pneumoniae. The experiment in a line: Antibacterial activity against fluoroquinolone resistance Streptococcus pneumoniae SP3765. It is filed as functional.
In another assay the test system is Haemophilus influenzae. The experiment in a line: Antibacterial activity against Haemophilus influenzae HI3542. The assay is classed as functional. Particulars: HI-3542.
Assay [2] deals with Voltage-gated inwardly rectifying potassium channel KCNH2 (Homo sapiens, UniProt Q12809). Kind of assay: Displacement of [3H]dofetilide from human ERG by fliter binding assay.
The test system of another assay is Moraxella catarrhalis. Kind of assay: Antibacterial activity against Moraxella catarrhalis BC-3531. It is filed as functional.
For assay [3], the system named is Staphylococcus aureus. The experiment in a line: Antibacterial activity against Staphylococcus aureus UC76. The assay is classed as functional.
Assay [4] concerns Staphylococcus aureus. The experiment in a line: Antibacterial activity against Staphylococcus aureus SA2552. The assay is classed as functional.
The subject of assay [5] is Streptococcus pneumoniae. Kind of assay: Antibacterial activity against Streptococcus pneumoniae SV1. The assay is classed as functional.

Our source for the MIC and Ki values is ChEMBL document CHEMBL1144619, “The synthesis and biological evaluation of novel series of nitrile-containing fluoroquinolones as antibacterial agents” (Bioorg Med Chem Lett, 2007).

Values after ≈ are worked out from the molar mass of the structure shown.

Sequence of Voltage-gated inwardly rectifying potassium channel KCNH2 (Q12809 whole entry): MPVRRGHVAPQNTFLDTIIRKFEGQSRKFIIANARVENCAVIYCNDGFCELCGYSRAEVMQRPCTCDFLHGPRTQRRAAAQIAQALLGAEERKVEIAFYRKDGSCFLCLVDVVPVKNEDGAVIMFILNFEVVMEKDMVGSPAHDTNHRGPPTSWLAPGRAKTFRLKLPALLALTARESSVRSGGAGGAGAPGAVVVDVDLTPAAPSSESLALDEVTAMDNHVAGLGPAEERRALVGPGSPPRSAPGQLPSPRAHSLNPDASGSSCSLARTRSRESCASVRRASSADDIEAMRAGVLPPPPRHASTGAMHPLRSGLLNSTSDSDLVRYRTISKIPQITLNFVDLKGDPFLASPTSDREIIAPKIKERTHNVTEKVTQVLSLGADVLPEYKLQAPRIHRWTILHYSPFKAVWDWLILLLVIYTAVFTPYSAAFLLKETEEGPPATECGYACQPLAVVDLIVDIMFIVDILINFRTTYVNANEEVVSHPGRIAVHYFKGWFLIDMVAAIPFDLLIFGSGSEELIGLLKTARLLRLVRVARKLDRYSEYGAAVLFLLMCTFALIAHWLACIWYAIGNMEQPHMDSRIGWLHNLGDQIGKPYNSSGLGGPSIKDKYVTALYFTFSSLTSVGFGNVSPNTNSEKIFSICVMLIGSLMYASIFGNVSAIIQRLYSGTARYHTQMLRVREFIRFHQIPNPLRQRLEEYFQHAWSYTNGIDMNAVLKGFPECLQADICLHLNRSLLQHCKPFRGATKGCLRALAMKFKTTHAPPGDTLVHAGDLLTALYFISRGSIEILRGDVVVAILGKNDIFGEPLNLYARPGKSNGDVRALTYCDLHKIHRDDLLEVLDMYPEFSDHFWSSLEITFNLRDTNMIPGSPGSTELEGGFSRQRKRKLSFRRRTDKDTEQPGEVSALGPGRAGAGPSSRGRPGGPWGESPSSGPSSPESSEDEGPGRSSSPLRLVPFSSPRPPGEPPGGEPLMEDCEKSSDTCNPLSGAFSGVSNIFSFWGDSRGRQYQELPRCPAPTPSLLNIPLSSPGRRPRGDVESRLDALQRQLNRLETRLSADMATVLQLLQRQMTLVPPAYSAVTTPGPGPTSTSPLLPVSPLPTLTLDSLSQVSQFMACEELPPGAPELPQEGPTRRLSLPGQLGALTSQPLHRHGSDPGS

On to `COc1c(N2CC[C@@H](CN)C2)c(F)cc2c(=O)c(C(=O)O)cn(C3CC3)c12`, for which the MIC against Streptococcus pneumoniae [1] amounted to 1 µg/mL (≈ 2.66 µM); against Haemophilus influenzae, 0.015 µg/mL (≈ 0.04 µM); against Moraxella catarrhalis, 0.125 µg/mL (≈ 0.333 µM); against Staphylococcus aureus [3] it was 0.015 µg/mL (≈ 0.04 µM); against Staphylococcus aureus [4] it was 0.06 µg/mL (≈ 0.16 µM); in the assay with Streptococcus pneumoniae [5] it was 0.06 µg/mL (≈ 0.16 µM). For the same compound, in assay [2], the Ki came out at 24 µM.

Consider `O=C(O)c1cn(C2CC2)c2cc(N3CCNCC3)c(F)cc2c1=O` [CIPROFLOXACIN], for which the MIC in the assay with Streptococcus pneumoniae [1] was determined as 16 µg/mL (≈ 48.3 µM); in the assay on Haemophilus influenzae, 0.008 µg/mL (≈ 0.0241 µM); in the assay with Moraxella catarrhalis, 0.03 µg/mL (≈ 0.0905 µM); in the assay with Staphylococcus aureus [4] it was 1 µg/mL (≈ 3.02 µM).

In the case of `COc1c(N2CC[C@@H](CN)C2)ccc2c(=O)c(C(=O)O)cn(C3CC3)c12`, the MIC came to 4 µg/mL (≈ 11.2 µM) in the assay with Streptococcus pneumoniae [1]; 0.06 µg/mL (≈ 0.168 µM) in the assay on Haemophilus influenzae; 0.5 µg/mL (≈ 1.4 µM) against Moraxella catarrhalis; 0.03 µg/mL (≈ 0.0839 µM) in the assay with Staphylococcus aureus [3]; 0.25 µg/mL (≈ 0.699 µM) against Staphylococcus aureus [4]; 0.125 µg/mL (≈ 0.35 µM) in the assay on Streptococcus pneumoniae [5]. Further, affinity in assay [2] was put at a Ki of 64 µM.

For `COc1c(N2CC[C@@H](CNCCC#N)C2)c(F)cc2c(=O)c(C(=O)O)cn(C3CC3)c12`, the MIC with Streptococcus pneumoniae [1] came to 2 µg/mL (≈ 4.67 µM); in the assay with Haemophilus influenzae, 0.125 µg/mL (≈ 0.292 µM); in the assay on Moraxella catarrhalis it was 0.5 µg/mL (≈ 1.17 µM); in the assay on Staphylococcus aureus [3], 0.03 µg/mL (≈ 0.07 µM); against Staphylococcus aureus [4] it was 0.06 µg/mL (≈ 0.14 µM); in the assay on Streptococcus pneumoniae [5] it was 0.125 µg/mL (≈ 0.292 µM). In addition, the Ki in assay [2] was found to be 106 µM.

On to `Cc1c(N2CC[C@@H]([C@H](C)NCCC#N)C2)c(F)cc2c(=O)c(C(=O)O)cn(C3CC3)c12`, for which the MIC is 0.06 µg/mL (≈ 0.141 µM) in the assay with Streptococcus pneumoniae [1]; 0.03 µg/mL (≈ 0.0703 µM) in the assay on Haemophilus influenzae; 0.015 µg/mL (≈ 0.0352 µM) against Moraxella catarrhalis; 0.002 µg/mL (≈ 0.00469 µM) in the assay with Staphylococcus aureus [3]; 0.008 µg/mL (≈ 0.0188 µM) in the assay on Staphylococcus aureus [4]; 0.008 µg/mL (≈ 0.0188 µM) in the assay on Streptococcus pneumoniae [5]. In assay [2], this compound displayed a Ki of 72 µM.

With `COc1c(N2CC[C@@H]([C@H](C)N)C2)ccc2c(=O)c(C(=O)O)cn(C3CC3)c12`, the MIC against Streptococcus pneumoniae [1] was 0.125 µg/mL (≈ 0.337 µM); in the assay with Haemophilus influenzae, 0.125 µg/mL (≈ 0.337 µM); with Moraxella catarrhalis, 0.06 µg/mL (≈ 0.162 µM); in the assay on Staphylococcus aureus [3], 0.008 µg/mL (≈ 0.0215 µM); with Staphylococcus aureus [4], 0.03 µg/mL (≈ 0.0808 µM); against Streptococcus pneumoniae [5] it was 0.015 µg/mL (≈ 0.0404 µM).

For `CCC1(CN)CN(c2c(F)cc3c(=O)c(C(=O)O)cn(C4CC4)c3c2C)C1`, the MIC stood at 1 µg/mL (≈ 2.68 µM) in the assay with Streptococcus pneumoniae [1]; 0.015 µg/mL (≈ 0.0402 µM) in the assay with Haemophilus influenzae; 0.125 µg/mL (≈ 0.335 µM) with Moraxella catarrhalis; 0.015 µg/mL (≈ 0.0402 µM) in the assay on Staphylococcus aureus [3]; 0.03 µg/mL (≈ 0.0803 µM) in the assay on Staphylococcus aureus [4]; 0.06 µg/mL (≈ 0.161 µM) against Streptococcus pneumoniae [5]. Also, in assay [2], the affinity, expressed as Ki, was 45 µM.

With `Cc1c(N2CC[C@@H]([C@H](C)N)C2)c(F)cc2c(=O)c(C(=O)O)cn(C3CC3)c12`, the MIC in the assay on Streptococcus pneumoniae [1] worked out at 0.03 µg/mL (≈ 0.0803 µM); in the assay on Haemophilus influenzae, 0.004 µg/mL (≈ 0.0107 µM); against Moraxella catarrhalis, 0.015 µg/mL (≈ 0.0402 µM); against Staphylococcus aureus [3] it was 0.002 µg/mL (≈ 0.00536 µM); in the assay on Staphylococcus aureus [4], 0.03 µg/mL (≈ 0.0803 µM); with Streptococcus pneumoniae [5] it was 0.002 µg/mL (≈ 0.00536 µM).

On to `COc1c(N2CC[C@@H](CNCCC#N)C2)ccc2c(=O)c(C(=O)O)cn(C3CC3)c12`, for which the MIC in the assay with Streptococcus pneumoniae [1] was determined as 2 µg/mL (≈ 4.87 µM); in the assay with Haemophilus influenzae, 0.25 µg/mL (≈ 0.609 µM); in the assay on Moraxella catarrhalis, 1 µg/mL (≈ 2.44 µM); in the assay on Staphylococcus aureus [3], 0.03 µg/mL (≈ 0.0731 µM); against Staphylococcus aureus [4], 0.25 µg/mL (≈ 0.609 µM); against Streptococcus pneumoniae [5] it was 0.125 µg/mL (≈ 0.305 µM).

For `COc1c(N2CC[C@@H]([C@H](C)N)C2)c(F)cc2c(=O)c(C(=O)O)cn(C3CC3)c12`, the MIC in the assay with Streptococcus pneumoniae [1] worked out at 0.03 µg/mL (≈ 0.077 µM); against Haemophilus influenzae, 0.004 µg/mL (≈ 0.0103 µM); in the assay with Moraxella catarrhalis, 0.015 µg/mL (≈ 0.0385 µM); in the assay with Staphylococcus aureus [3], 0.002 µg/mL (≈ 0.00514 µM); against Staphylococcus aureus [4], 0.008 µg/mL (≈ 0.0205 µM); against Streptococcus pneumoniae [5], 0.004 µg/mL (≈ 0.0103 µM).

As for `COc1c(N2CC[C@@H]([C@H](C)NCCC#N)C2)ccc2c(=O)c(C(=O)O)cn(C3CC3)c12`, the MIC with Streptococcus pneumoniae [1] turned out to be 2 µg/mL (≈ 4.71 µM); in the assay on Haemophilus influenzae it was 0.5 µg/mL (≈ 1.18 µM); with Moraxella catarrhalis, 1 µg/mL (≈ 2.36 µM); with Staphylococcus aureus [3], 0.03 µg/mL (≈ 0.0707 µM); against Staphylococcus aureus [4], 0.125 µg/mL (≈ 0.294 µM); against Streptococcus pneumoniae [5], 0.25 µg/mL (≈ 0.589 µM).
